Measured values taken from US20240067634A1, “INHIBITORS OF NEF DOWNMODULATION” (priority 2020, published 2024).
Where two headings read alike, the source gives them in different places.

Key:
[1] = target: T1, HIV-1 Nef (Human immunodeficiency virus 1, UniProt P03406); assay: Anti-Nef activity: reversal of Nef-dependent MHC-I HLA-A2 downmodulation, flow cytometry; assay type: cell-based
T1 sequence (P03406 2-206): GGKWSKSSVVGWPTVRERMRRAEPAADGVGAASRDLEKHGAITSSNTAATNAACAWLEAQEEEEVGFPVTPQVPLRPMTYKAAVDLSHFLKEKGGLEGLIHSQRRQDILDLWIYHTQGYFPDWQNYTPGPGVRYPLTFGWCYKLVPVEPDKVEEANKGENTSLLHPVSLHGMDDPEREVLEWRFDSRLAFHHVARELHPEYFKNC
Experimental: Determination of anti-Nef activity: To identify molecules with enhanced Nef inhibition, decreased toxicity and decreased inhibition of lysosomes, the analogs of the disclosure are screened initially for Nef inhibitory activity using a high throughput assay in HIV-1 infected CEM-A2 cells. These cells are infected with an HIV-1 reporter construct for 48 hours and then exposed to potential inhibitors for 24 hours. Cells are harvested and stained for flow cytometric analysis of HLA-A2 surface expression, and the fold downmodulation of HLA-A2 are calculated by comparing expression on uninfected cells to that on infected cells.
PBMCs is isolated from leukopaks, CD8-depleted, and stimulated with PHA.
To assess their toxicity, an MTT assay was used, which measures […] dehydrogenase activity. Metabolically active cells reduce MTT to MTT-formazan leading to a color change. For this analysis, PHA-activated primary human PBMCs were exposed to a range of concentrations of each drug continuously for 72 hours of culture.

[2] = target: V-ATPase-dependent lysosomal acidification; assay: cells; assay type: cell-based, human; settings: read-out: Lyso IC50
Excerpt: Determine effect on V-ATPase activity: Plecomacrolides are known inhibitors of V-ATPase that neutralize normally acidified lysosomes. […] Thus, analogs of the disclosure are further characterized by measuring their effects on lysosome acidification.
LysoTracker® is a fluorophore linked to a weak base that is partially protonated at neutral pH. This form of the probe is capable of freely permeating cell membranes of live cells. In acidic compartments, protonation creates a form that was impermeable causing the probe to accumulate inside the lysosome.

[3] = tested on: C57BL/6J mice; settings: cited from earlier work
[4] = tested on: C57BL/6J and BALB/c mice; settings: five consecutive doses at 12 mg/kg; cited from earlier work
[5] = tested on: HIV-1 WT infected primary T cells; assay: In vitro flow cytometric anti-HIV-1 CTL killing assay; assay type: cell-based, human; settings: low dose CMA (0.5 nM in FIG. 8); anti-HIV-1 CTL clone
Experimental: Numbers are mean percent infected cell survival after a 4 hour incubation with a 2:1 effector:target (E:T) ratio of an anti-HIV-1 CTL clone recognizing Gag SL9 epitope (n=2).
Mean +/− standard deviation is shown n=2. E:T, effector:target.
Therefore, the effect of promising Nef inhibitor analogs is generated as disclosed herein on anti-HIV-1 CTL killing using the in vitro flow cytometric CTL killing assay developed previously (FIGS. 1 and 8 ? (Collins et al., 1998). These studies utilize CTL clones reactive against various HIV-1 epitopes known to be affected by Nef (Collins et al., 1998).

[6] = tested on: Nef-dependent degradation of MHC-I and CD4; assay: Western blot of Nef-dependent protein degradation in sorted HIV-1 infected primary T cells; assay type: cell-based, human
[7] = 24 hr Lysotracker IC50, 1000 nM set as activity threshold (FIG. 11-14)
[8] = Homo sapiens, PBMC, 24 h, 24 hr Lysotracker IC50, 1000 nM set as activity threshold (FIG. 11-14)
[9] = HIV-1 infected primary T lymphocytes
[10] = intraperitoneal daily over three days, 10 mg/kg

Structure (SMILES): C/C=C/[C@H]1O[C@@H]([C@@H](C)[C@H](O)[C@H](C)[C@H]2OC(=O)/C(OC)=C/C(C)=C/[C@@H](C)[C@@H](O)[C@@H](CC)[C@@H](O)[C@H](C)C/C(C)=C/C=C/[C@@H]2OC)C[C@@H](O)[C@@H]1C [21-Deoxy CMF, 21-deoxy concanamycin F]
- IC50 ([1]; 24 hr Nef activity IC50, independent donors, 1000 nM set as activity threshold (FIG. 11-14)): 4.29 nM
- IC50 [2, 7]: 23.3 nM

Structure (SMILES): C#CCCC1(CCC(=O)O[C@H]2C[C@@H](O[C@@H]3C[C@](O)([C@@H](C)[C@H](O)[C@H](C)[C@H]4OC(=O)/C(OC)=C/C(C)=C/[C@@H](C)[C@@H](O)[C@@H](CC)[C@@H](O)[C@H](C)C/C(C)=C/C=C/[C@@H]4OC)O[C@H](/C=C/C)[C@H]3C)O[C@@H](C)[C@@H]2OC(N)=O)N=N1 [23-Dual Linear Probe CMC, 3′-(3-(3-(but-3-yn-1-yl)-3H-diazirin-3-yl)propanoate) Concanamycin C]
- IC50 [2, 8]: 4.7 nM

Structure (SMILES): CO/C1=C\C(C)=C\[C@@H](C)[C@@H](O)[C@@H](C)C/C(C)=C/C=C/[C@H](OC)[C@@H]([C@@H](C)[C@@H](O)[C@H](C)[C@@]2(O)C[C@@H](O)[C@H](C)[C@@H](C(C)C)O2)OC1=O [BafA1, Bafilomycin A1]
- restoration of MHC-I HLA-A2 surface expression [1, 9]: restore MHC-I HLA-A2
- weight loss ([3]; 25 mg/kg, within 12 days of injection): 30%
- body weight [3, 10]: maintained a normal weight
- liver toxicity [3, 10]: no evidence of liver toxicity
- liver enzymes ([3]; intraperitoneal, 25 mg/kg): increases in liver enzymes indicative of liver damage
- IC50 [2, 7]: 45.2 nM
- overall body weight [4]: not affected
- pancreatic islet cell size [4]: decrease in pancreatic islet cell size
- random blood glucose [4]: did not cause significant variations

Structure (SMILES): CO/C1=C\C(C)=C\[C@@H](C)[C@@H](O)[C@@H](C)C/C(C)=C/C=C/[C@H](OC)[C@@H]([C@@H](C)[C@@H](O)[C@H](C)[C@@]2(OC)C[C@@H](O)[C@H](C)[C@@H](C(C)C)O2)OC1=O [BafA2, Bafilomycin A2]
- IC50 [2, 8]: 25.3 nM

Structure (SMILES): C/C=C/[C@H]1O[C@@](O)([C@@H](C)[C@H](O)[C@H](C)[C@H]2OC(=O)/C(OC)=C/C(C)=C/[C@@H](C)[C@@H](O)[C@@H](CC)[C@@H](O)[C@H](C)C/C(C)=C/C=C/[C@@H]2OC)C[C@@H](O[C@H]2C[C@@H](O)[C@H](OC(N)=O)[C@@H](C)O2)[C@@H]1C [CMA, Concanamycin A]
- restoration of MHC-I HLA-A2 surface expression [1, 9]: restore MHC-I HLA-A2
- concentration with activity in restoring MHC-I HLA-A2 ([1]; HIV-1 infected primary T lymphocytes, FIG. 2): ~100 pM
- CTL killing of HIV-1 WT infected primary T cells [5]: increases CTL killing
- IC50 [2, 7]: 0.977 nM
- Nef-dependent degradation of MHC-I ([6]; antibody HC-10, FIG. 9): selectively reverses
- Nef-mediated CD4 degradation ([6]; concentrations sufficient to reverse Nef-mediated degradation of MHC-I, FIG. 9): did not significantly alter
- overall body weight [4]: not affected
- pancreatic islet cell size [4]: decrease in pancreatic islet cell size
- random blood glucose [4]: did not cause significant variations

Structure (SMILES): C/C=C/[C@H]1O[C@@](O)([C@@H](C)[C@H](O)[C@H](C)[C@H]2OC(=O)/C(OC)=C/C(C)=C/[C@@H](C)[C@@H](O)[C@@H](C)[C@@H](O)[C@H](C)C/C(C)=C/C=C/[C@@H]2OC)C[C@@H](O[C@H]2C[C@@H](O)[C@H](OC(N)=O)[C@@H](C)O2)[C@@H]1C [CMB, Concanamycin B, reference compound]
- IC50 [2, 7]: 29.6 nM

Structure (SMILES): C/C=C/[C@H]1O[C@@](O)([C@@H](C)[C@H](O)[C@H](C)[C@H]2OC(=O)/C(OC)=C/C(C)=C/[C@@H](C)[C@@H](O)[C@@H](CC)[C@@H](O)[C@H](C)C/C(C)=C/C=C/[C@@H]2OC)C[C@@H](O[C@H]2C[C@@H](O)[C@H](O)[C@@H](C)O2)[C@@H]1C [CMC, Concanamycin C, reference compound]
- IC50 [2, 7]: 2.72 nM

Structure (SMILES): C/C=C/[C@H]1O[C@@](O)([C@@H](C)[C@H](O)[C@H](C)[C@H]2OC(=O)/C(OC)=C/C(C)=C/[C@@H](C)[C@@H](O)[C@@H](CC)[C@@H](O)[C@H](C)C/C(C)=C/C=C/[C@@H]2OC)C[C@@H](O)[C@@H]1C [CMF, Concanamycin F]
- IC50 ([2]; Homo sapiens, PBMC, 24 h): 6.27 nM

Structure (SMILES): C#CCCC1(CCC(=O)O[C@H]2C[C@@H](O[C@@H]3C[C@](O)([C@@H](C)[C@H](O)[C@H](C)[C@H]4OC(=O)/C(OC)=C/C(C)=C/[C@@H](C)[C@@H](O)[C@@H](CC)[C@@H](O)[C@H](C)C/C(C)=C/C=C/[C@@H]4OC)O[C@H](/C=C/C)[C@H]3C)O[C@@H](C)[C@@H]2O)N=N1 [Dual Linear Probe CMA, 3′-(3-(3-(but-3-yn-1-yl)-3H-diazirin-3-yl)propanoate) Concanamycin A]
- IC50 [2, 8]: 4.87 nM

Structure (SMILES): CO/C1=C\C(C)=C\C(C)C(O)C(C)C/C(C)=C/C=C/C(OC)C(C(C)C(O)C(C)C2(O)CC(O[C@@H]3O[C@@H](C)[C@H](O)[C@@H](O)[C@H]3OC)C(C)C(C(C)C)O2)OC1=O (stereo partly drawn) [Leucanicidin, reference compound]
- IC50 [2, 7]: 2.04 nM

Structure (SMILES): CC=CC=CC1OC(O)(C(C)C(O)C(C)C2OC(=O)C(OC)=CC(C)=CC(C)C(O)C(C)CC(C)=CC=CC2OC)CC(OC2CC(O)C(O)C(C)O2)C1C (stereo not drawn) [PC-766B, reference compound]
- IC50 [2, 7]: 2.72 nM

Structure (SMILES): C/C=C/C1OC(O)(C(C)C(O)C(C)C2OC(=O)/C(OC)=C/C(C)=C/C(C)C(O)C(CC)C(O)C(C)C/C(C)=C/C=C/C2OC)CC(OC(=O)/C=C/C(=O)NC2=C(O)CCC2=O)C1C (stereo not drawn) [Virustomycin, reference compound]
- IC50 [1]: 0.688 nM
- IC50 [2, 7]: 3.68 nM
